Counter-ions that a name gives are not always drawn.
Test system: not listed separately
Experiment: in vitro
Settings: human, CC50 (uM) [SG]
With `CNc1cc(S(N)(=O)=O)ccc1Oc1ccc(SC)c(C)c1` [Compound 62, 4-(3-methyl-4-(methylthio)phenoxy)-3-(methylamino)benzenesulfonamide] the CC50 was > 50 µM.

Test system: Huh7 cells expressing a subgenomic RNA replicon of Con1 (genotype 1b) sequence origin
Experiment: microbe, parasite or virus in culture
Settings: Hepatitis C virus, GETYPE1B, Huh-7, read-out: IC25 (values noted with an asterisk)
Molecule `O=C1CC(=O)c2c(Cl)c(Cl)c(Cl)c(Cl)c21` [UCH-L3 inhibitor, 4,5,6,7-Tetrachloroindan-1,3-dione, reference compound] has an IC25 of 19.7 µM.

Same assay, conditions: Hepatitis C virus, Huh-7
In the case of `CC(C)C[C@H]1C(=O)N2CCC[C@H]2[C@]2(O)O[C@](NC(=O)[C@@H]3C=C4c5cccc6[nH]c(Br)c(c56)C[C@H]4N(C)C3)(C(C)C)C(=O)N12` [Bromocriptine (e.g., mesylate), bromocriptine, reference compound], the IC50 is reported as 3.38 µM. For `CC(CN(C)C)CN1c2ccccc2CCc2ccccc21` (stereo not drawn) [Trimipramine (e.g., maleate), Trimipramine, reference compound], the IC50 was 15.6 µM. `C[C@@]1(CO)[C@H](O)CC[C@@]2(C)[C@H]1CC[C@H]1C[C@@H]3C[C@@]12CC[C@]3(O)CO` [Aphidicolin, aphidicolin, reference compound] gave an IC50 of 1.71 µM. Molecule `CCN(CC)CCOCCOC(=O)C(CC)(CC)c1ccccc1` [Oxeladin, reference compound] has an IC50 of 8.72 µM. For `CCCC1O[C@@H]2C[C@H]3[C@@H]4CCC5=CC(=O)C=C[C@]5(C)[C@H]4[C@@H](O)C[C@]3(C)[C@]2(C(=O)CO)O1` (stereo partly drawn) [Budesonide, budesonide, reference compound], the IC50 was 15.7 µM. With `C[C@]12CC[C@@H]3c4ccc(O)cc4C[C@@H](CCCCCCCCC[S+]([O-])CCCC(F)(F)C(F)(F)F)[C@H]3[C@@H]1CC[C@@H]2O` (stereo partly drawn) [Fulvestrant, reference compound] the IC50 was 3.05 µM. For `O=C1Nc2ccc(Cl)cc2[C@@](C#CC2CC2)(C(F)(F)F)O1` [Efavirenz, efavirenz, reference compound], the IC50 was 15.5 µM. Molecule `CC[C@@H](C(=O)O)[C@@H]1O[C@@H]([C@@H](C)[C@H](O)[C@H](C)C(=O)[C@H](CC)[C@H]2O[C@]3(C=C[C@@H](O)[C@]4(CC[C@@](C)([C@H]5CC[C@](O)(CC)[C@H](C)O5)O4)O3)[C@H](C)C[C@@H]2C)[C@@H](C)C[C@@H]1C` [Narasin, reference compound] has an IC50 of 0.176 µM. In the case of `CC(C)(C)C(=O)OCOP(=O)(COCCn1cnc2c(N)ncnc21)OCOC(=O)C(C)(C)C` [Adefovir (e.g., dipivoxil), adefovir dipivoxil, reference compound], the IC50 is reported as 0.319 µM. `CCOc1cc(CC(=O)N[C@@H](CC(C)C)c2ccccc2N2CCCCC2)ccc1C(=O)O` [Repaglinide, reference compound] gave an IC50 of 12.2 µM. With `O=C1c2ccccc2-[n+]2ccc3c([nH]c4ccccc43)c21` [Fascaplysin, reference compound] the IC50 was 0.444 µM. `C=C(NC(=O)C(=C)NC(=O)c1csc(C2=N[C@@H]3c4csc(n4)[C@H]4NC(=O)c5csc(n5)[C@H]([C@](C)(O)[C@@H](C)O)NC(=O)[C@H]5CSC(=N5)/C(=C/C)NC(=O)[C@H]([C@@H](C)O)NC(=O)c5csc(n5)[C@]3(CC2)NC(=O)[C@H](C)NC(=O)C(=C)NC(=O)[C@H](C)NC(=O)[C@H]([C@@H](C)CC)N[C@@H]2C=Cc3c([C@H](C)O)cc(nc3[C@H]2O)C(=O)O[C@@H]4C)n1)C(N)=O` [Thiostrepton, reference compound] gave an IC50 of 3.84 µM. Molecule `Nc1ccn([C@@H]2O[C@H](CO)[C@@H](O)C2(F)F)c(=O)n1` [Gemcitabine (e.g., hydrochloride), Gemcitabine, reference compound] has an IC50 of 0.06 µM. In the case of `Oc1cc(O)cc(/C=C/c2ccc(O)c(O)c2)c1` [Piceatannol, reference compound], the IC50 is reported as 5.47 µM. For `C[C@H]1[C@H](OC(=O)CCC(=O)O)O[C@@H]2O[C@@]3(C)CC[C@H]4[C@H](C)CC[C@@H]1[C@@]24OO3` [Artesunate, artesunate, reference compound], the IC50 was 3.73 µM. For `Nc1nc(Cl)nc2c1ncn2[C@H]1C[C@H](O)[C@@H](CO)O1` [Cladribine, 2-chloro-2′-deoxyadenosine, reference compound], the IC50 was 0.112 µM. In the case of `O=CN/C=C/c1cc(O)ccc1O` [Erbstatin, reference compound], the IC50 is reported as 7.63 µM. `CC(C(O)c1ccc(O)cc1)N1CCC(Cc2ccccc2)CC1` (stereo not drawn) [Ifenprodil (e.g., tartrate), Ifenprodil, reference compound] gave an IC50 of 4.68 µM. With `C/C=C(/C)C(=O)O[C@H]1C(C)=C2[C@H]([C@@H]1OC(=O)CCCCCCC)[C@@](C)(OC(C)=O)C[C@H](OC(=O)CCC)[C@@]1(O)[C@H]2OC(=O)[C@@]1(C)O` [Thapsigargin, reference compound] the IC50 was 0.0113 µM. For `CC(C)N1CCN(c2ccc(OCC3COC(Cn4cncn4)(c4ccc(Cl)cc4Cl)O3)cc2)CC1` (stereo not drawn) [Terconazole, reference compound], the IC50 was 2.55 µM. In the case of `O=C1C(CC[C@@H](O)c2ccc(F)cc2)[C@@H](c2ccc(O)cc2)N1c1ccc(F)cc1` (stereo partly drawn) [Ezetimibe, ezitamibe, reference compound], the IC50 is reported as 4.2 µM. In the case of `CC[C@@]1(O)C(=O)OCc2c1cc1n(c2=O)Cc2cc3ccccc3nc2-1` [Camptothecin, camptothecin, reference compound], the IC50 is reported as 0.026 µM. Molecule `COC1=CC(=O)C[C@@H](C)[C@]12Oc1c(Cl)c(OC)cc(OC)c1C2=O` [Griseofulvin (e.g., microcrystalline), Griseofulvin, reference compound] has an IC50 of 11.5 µM. `CC[C@H](C)C(=O)O[C@H]1CCC=C2C=C[C@H](C)[C@H](CC[C@@H]3C[C@@H](O)CC(=O)O3)[C@H]21` [Mevastatin, reference compound] gave an IC50 of 3.45 µM. In the case of `O=C1[C@H]2CCCC[C@H]2C(=O)N1CCCCN1CCN(c2nsc3ccccc23)CC1` [Perospirone, reference compound], the IC50 is reported as 3.6 µM. In the case of `CN(C)CCOC(C)(c1ccccc1)c1ccc(Cl)cc1` (stereo not drawn) [Chlorphenoxamine (e.g., hydrochloride), chlorphenoxamine, reference compound], the IC50 is reported as 16.2 µM. `CC[C@H]1CN2CCc3cc(OC)c(OC)cc3[C@@H]2C[C@@H]1C[C@H]1NCCc2cc(OC)c(OC)cc21` [Emetine (e.g., dihydrochloride hydrate), Emetine, reference compound] gave an IC50 of 0.03 µM. Molecule `CN(Cc1cc(Br)cc(Br)c1N)C1CCCCC1` [Bromhexine, reference compound] has an IC50 of 14.2 µM. In the case of `CCOC(=O)c1ccc(N)cc1` [Benzocaine, reference compound], the IC50 is reported as 13.9 µM. `CCc1c2c(nc3ccc(OC(=O)N4CCC(N5CCCCC5)CC4)cc13)-c1cc3c(c(=O)n1C2)COC(=O)[C@]3(O)CC` [Irinotecan (e.g., hydrochloride), irinotecan (CPT-11), reference compound] showed an IC50 of 1.56 µM. With `COc1ccc2cc1Oc1ccc(cc1)C[C@H]1c3c(cc4c(c3Oc3cc5c(cc3OC)CCN(C)[C@@H]5C2)OCO4)CCN1C` [Cepharanthine, reference compound] the IC50 was 19.5 µM. With `COc1c(C)c2c(c(O)c1C/C=C(\C)CCC(=O)O)C(=O)OC2` [Mycophenolic Acid, Mycophenolic acid, reference compound] the IC50 was 0.751 µM. In the case of `CCCCC(CC)COC(=O)/C=C/c1ccc(OC)cc1` (stereo not drawn) [Octyl Methoxycinnamate, reference compound], the IC50 is reported as 1.24 µM.

Same assay, conditions: Hepatitis C virus, Huh-7, read-out: Max Effect@CC30 (inhibition)
`CSc1ccc(Oc2ccccc2CN(C)C)cc1` [Compound 35, N,N-dimethyl(2-(4-(methylthio)phenoxy)phenyl)methanamine] gave an Emax of 48%.
